Entries after “also recorded” stand apart in the source; their conditions may differ.
Assay: Hygroscopicity test by Dynamic Vapour Sorption (DVS 1000, SMS)
Format: physicochemical
Settings: for hygroscopicity (in words): DVS, 0-90% RH at 25° C.
Description: The observed water uptake was investigated by submitting a sample of such substances to a hygroscopicity test by means of a DVS 1000 (SMS). The apparatus is a “controlled atmosphere microbalance” where the weighed sample is exposed to programmed variations of the relative humidity (RH) at a constant and controlled temperature. The measured parameters (weight, time and RH), reported in Excel worksheets, allow obtaining hygroscopicity curves over the tested RH range. For example, sorption/desorption cycles between 0% and 90% RH can be performed at controlled temperature of 25° C. Progressive variations of RH can be, for example, of 10% and 3% and are operated by the software at the equilibration of the sample weight. This condition can be defined at a constant rate of percent weight variation such as, for example, 0.005%/min. FIG. 6 reports the DVS profiles of the amorphous form, crystalline form 1 and crystalline form 2 of the compound of formula (I). Relative Humidity (RH, %) values are reported on the x-axis while Change in Mass (%) is reported on the y axis. The curves are related to the sorption step between 0% RH and 90% RH at 25° C.

[1] = DVS sorption step, 25° C./90% RH

| Compound | water uptake [1] | hygroscopicity (in words) | water uptake (DVS at 25° C., from RH values lower than 30% RH) |
| --- | --- | --- | --- |
| CN1CCN(c2ccc(C(=O)Nc3n[nH]c4ccc(Cc5cc(F)cc(F)c5)cc34)c(NC3CCOCC3)c2)CC1 [crystalline form 1, N-[5-(3,5-Difluoro-benzyl)-1H-indazol-3-yl]-4-(4-methyl-piperazin-1-yl)-2-(tetrahydro-pyran-4-ylamino)-benzamide] | 0.6% | low hygroscopicity | – |
| CN1CCN(c2ccc(C(=O)Nc3n[nH]c4ccc(Cc5cc(F)cc(F)c5)cc34)c(NC3CCOCC3)c2)CC1 [amorphous form, N-[5-(3,5-Difluoro-benzyl)-1H-indazol-3-yl]-4-(4-methyl-piperazin-1-yl)-2-(tetrahydro-pyran-4-ylamino)-benzamide] | 2.5% | higher hygroscopicity than the crystalline forms 1 and 2; also recorded: hygroscopic solid | greater than 1% |
| CN1CCN(c2ccc(C(=O)Nc3n[nH]c4ccc(Cc5cc(F)cc(F)c5)cc34)c(NC3CCOCC3)c2)CC1 [crystalline form 2, N-[5-(3,5-Difluoro-benzyl)-1H-indazol-3-yl]-4-(4-methyl-piperazin-1-yl)-2-(tetrahydro-pyran-4-ylamino)-benzamide] | 0.2% | low hygroscopicity | – |

— patent US9649306B2, “Treatment of diseases through administration of N-[5-(3,5-difluoro-benzyl)-1H-indazol-3-yl]-4-(4-methyl-piperazin-1-yl)-2-(tetrahydro-pyran-4-ylamino)-benzamide” (NERVIANO MEDICAL SCIENCES S.R.L., priority 2012, dated 2017)
